Among the test systems are OVCAR-5 ovarian; KM12 colon; A549 NSCLC; RXF 393 renal; SF-268 CNS; SF-295 CNS; HOP-92 NSCLC; SW-620 colon; COLO 205 colon; NCI/ADR-RES ovarian.
What all share (assay): NCI anticancer screen, dose series, 48 h

“And” between values parts separate entries of the source, which are not always exact repeats. Equal entries are not always repeated.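 Tested at 5 concentrations; 48 h exposure; 96-well plates; endpoints linearly interpolated, else capped at highest concentration. Here, GI50 denotes the concentration required for 50% inhibition of growth. The concentration for full growth arrest is given as TGI.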

This passage reports GI50 and TGI results from PubChem BioAssay (NCI).

On to `Nc1nc(=O)n(C2CC(O)C(CO)O2)cc1F` (stereo not given), for which the GI50 with OVCAR-5 ovarian is above 100 µM; in the test with KM12 colon, above 66.3 µM; in the test on A549 NSCLC it was 0.0049 µM; in the test on RXF 393 renal it was above 57.8 µM; with SF-268 CNS, 0.00946 µM; in the test on HOP-92 NSCLC it was 1.65 µM. The GI50 in the test on NCI/ADR-RES ovarian was 0.107 µM. Besides, the TGI with OVCAR-5 ovarian, with KM12 colon, in the test on A549 NSCLC, with RXF 393 renal, in the test on SF-268 CNS and with SF-295 CNS was above 100 µM each time. Also, the TGI in the test with SW-620 colon, in the test on COLO 205 colon and with NCI/ADR-RES ovarian was above 100 µM in each case.

Regarding `NC(N)=NN=c1c(=O)c2ccccc2c1=O`, the GI50 in the test with OVCAR-5 ovarian was 17.5 µM; in the test on KM12 colon, 3.34 µM; in the test on A549 NSCLC, 12.4 µM; with RXF 393 renal, 13.1 µM; in the test with SF-268 CNS, 2.06 µM; in the test with SF-295 CNS it was 13.6 µM. Besides, the GI50 was 19.3 µM in the test with HOP-92 NSCLC, 1.96 µM in the test with SW-620 colon, 17.9 µM in the test with COLO 205 colon and 10.4 µM in the test with NCI/ADR-RES ovarian. The TGI in the test on OVCAR-5 ovarian stood at 32.5 µM; in the test on KM12 colon, 10.7 µM; in the test on A549 NSCLC, 30.5 µM; in the test on RXF 393 renal, 25.9 µM; with SF-268 CNS, 3.81 µM; with SF-295 CNS, 27.7 µM. Moreover, the TGI was determined as 34.9 µM in the test with HOP-92 NSCLC, 4.76 µM with SW-620 colon, 32.4 µM in the test with COLO 205 colon and 31.7 µM in the test on NCI/ADR-RES ovarian.

For the compound `O=C1/C(=C/c2cccnc2)SC(=S)N1Cc1ccco1`, the TGI is above 81.7 µM with OVCAR-5 ovarian; 14.5 µM with KM12 colon; above 100 µM in the test with A549 NSCLC; 24.2 µM in the test with RXF 393 renal; above 23.9 µM with SF-268 CNS; above 100 µM with SF-295 CNS. Moreover, the TGI with HOP-92 NSCLC was above 43.1 µM; in the test on SW-620 colon, above 100 µM; with COLO 205 colon, above 42.2 µM; in the test on NCI/ADR-RES ovarian it was above 100 µM.

`COC(=O)c1cc(-c2ccc3ccccc3c2)[nH]c(=O)c1C#N`: the TGI in the test with OVCAR-5 ovarian, with KM12 colon, in the test with A549 NSCLC, in the test on RXF 393 renal, with SF-268 CNS and in the test with SF-295 CNS was above 100 µM in each case. For the same compound, the TGI with HOP-92 NSCLC, in the test on SW-620 colon, in the test with COLO 205 colon and in the test on NCI/ADR-RES ovarian was above 100 µM in each case.

With `C[C@@H](Nc1nc(N[C@H](C)C(F)(F)F)nc(-c2cccc(Cl)n2)n1)C(F)(F)F`, the GI50 with OVCAR-5 ovarian was above 100 µM; with KM12 colon it was above 100 µM; in the test on A549 NSCLC it was 50.3 µM; in the test on RXF 393 renal it was 23.2 µM; in the test with SF-268 CNS, 29.4 µM; in the test on SF-295 CNS, 35.2 µM. Also, the GI50 in the test on HOP-92 NSCLC is 10.1 µM; in the test with SW-620 colon, above 100 µM; in the test with COLO 205 colon it was above 100 µM; in the test on NCI/ADR-RES ovarian it was 32.9 µM. In addition, the TGI in the test with OVCAR-5 ovarian is above 100 µM; in the test on KM12 colon it was above 100 µM; in the test with A549 NSCLC it was above 100 µM; in the test on RXF 393 renal it was 94.7 µM; in the test on SF-268 CNS it was above 100 µM; in the test with SF-295 CNS, above 100 µM. For the same compound, the TGI with HOP-92 NSCLC is 63.6 µM; in the test on SW-620 colon, above 100 µM; in the test with COLO 205 colon, above 100 µM; with NCI/ADR-RES ovarian it was above 100 µM.

Take `CN1CCN(CCCOc2cccc3nc(Nc4cc(Cl)cc(Cl)c4)ccc23)CC1`: the GI50 was 1.79 µM with OVCAR-5 ovarian; 1.72 µM in the test on KM12 colon; 1.98 µM with A549 NSCLC; 1.67 µM with RXF 393 renal; 1.69 µM with SF-268 CNS; 1.72 µM in the test with SF-295 CNS. Also, the GI50 in the test on HOP-92 NSCLC is 1.59 µM; in the test with SW-620 colon, 1.97 µM; with COLO 205 colon it was 1.63 µM; in the test on NCI/ADR-RES ovarian, 1.72 µM. The TGI in the test with OVCAR-5 ovarian turned out to be 3.43 µM; in the test with KM12 colon, 3.29 µM; with A549 NSCLC, 3.55 µM; in the test with RXF 393 renal it was 3.22 µM; in the test on SF-268 CNS, 3.38 µM; in the test with SF-295 CNS it was 3.32 µM. In addition, the TGI was found to be 4.82 µM with HOP-92 NSCLC, 3.68 µM in the test with SW-620 colon, 3.13 µM in the test on COLO 205 colon and 3.29 µM with NCI/ADR-RES ovarian.

In the case of `CNC(=O)c1cc(Oc2ccc3nc(NC(=O)Nc4ccc(CN5CCOCC5)c(C(F)(F)F)c4)sc3c2)ccn1`, the GI50 in the test with OVCAR-5 ovarian was 2.44 µM; in the test on KM12 colon, 0.446 µM; with A549 NSCLC it was 2.15 µM; with RXF 393 renal, 1.81 µM; in the test with SF-268 CNS it was 3.22 µM; in the test with SF-295 CNS, 1.9 µM. For the same compound, the GI50 is 1.44 µM in the test on HOP-92 NSCLC, 3.31 µM with SW-620 colon, 2.1 µM in the test on COLO 205 colon and 2.07 µM in the test with NCI/ADR-RES ovarian. For the same compound, the TGI stood at 6.9 µM in the test on OVCAR-5 ovarian; 2.31 µM in the test on KM12 colon; 5.86 µM with A549 NSCLC; 4.03 µM with RXF 393 renal; 14.6 µM in the test on SF-268 CNS; 4.73 µM with SF-295 CNS. In addition, the TGI in the test on HOP-92 NSCLC worked out at 3.64 µM; in the test on SW-620 colon, 10 µM; in the test with COLO 205 colon, 4.58 µM; in the test on NCI/ADR-RES ovarian, 5.37 µM.

As to `CC(=O)N[C@H](C)[C@@H](O)[C@@H](C)[C@@H]1OC(=O)/C=C/C=C(C)\C=C\[C@]2(C)C[C@@H](NS(C)(=O)=O)C=C[C@@H]2/C=C(C)/C=C/[C@H]1C`, the GI50 is above 43.5 µM with OVCAR-5 ovarian; 0.125 µM and 0.0277 µM with KM12 colon; 0.0159 µM and 0.00435 µM in the test on A549 NSCLC; 0.00352 µM and 0.00846 µM with RXF 393 renal; 0.357 µM and 0.0531 µM in the test with SF-268 CNS; 0.00244 µM and 0.00435 µM with SF-295 CNS. The GI50 in the test on HOP-92 NSCLC was 0.00126 µM and 0.00435 µM; with SW-620 colon it was 0.00821 µM and 0.0135 µM; in the test with COLO 205 colon, 0.00692 µM and 0.0199 µM; in the test on NCI/ADR-RES ovarian, 0.235 µM and 0.127 µM. In addition, the TGI is above 43.5 µM in the test with OVCAR-5 ovarian; above 43.5 µM with KM12 colon; above 43.5 µM with A549 NSCLC; 31.1 µM with RXF 393 renal; above 43.5 µM with SF-268 CNS; 0.0297 µM and 0.0256 µM in the test with HOP-92 NSCLC. Further, the TGI with SW-620 colon, in the test with COLO 205 colon and in the test on NCI/ADR-RES ovarian was above 43.5 µM in each case.

For `O=C1Cc2c(-c3ccccc3)cc(-c3ccccc3)nc2-c2ccccc2N1`, the TGI was 21.2 µM in the test on OVCAR-5 ovarian; above 100 µM with KM12 colon; 26.6 µM in the test on A549 NSCLC; above 100 µM in the test with RXF 393 renal; 19.3 µM with SF-268 CNS; 10.7 µM in the test on SF-295 CNS. Also, the TGI in the test on HOP-92 NSCLC is above 100 µM; with SW-620 colon, 82.5 µM; with COLO 205 colon, 63.7 µM; with NCI/ADR-RES ovarian, 18.6 µM.
